tested on: HCI-015 (organoid from a triple-negative breast cancer xenograft); assay: CTG-3D luminescence at 96 h relative to day-0 seeding control (ratio to day 0); higher = more growth / less cytotoxicity; PDxO 3D drug screen, 96 h, CTG-3D normalised to day-0 seeding control.; settings: 0.00025 µM; days in culture: 218

Structure (SMILES)	CTG-3D luminescence at 96 h
O=C(c1ccc(F)c(F)c1Nc1ccc(I)cc1F)N1CC(O)([C@@H]2CCCCN2)C1 [cobimetinib]	1.31
C[C@H](NC(=O)CCC(F)(F)F)C(=O)N[C@@H]1C(=O)N(CCO)c2ncccc2-c2ccccc21 [crenigacestat]	1.29
Cc1cc(Nc2ncc(Cl)c(Nc3ccccc3S(=O)(=O)C(C)C)n2)c(OC(C)C)cc1C1CCNCC1 [ceritinib]	1.1
CS(=O)(=O)c1ccc(C(=O)Nc2ccc(Cl)c(-c3ccccn3)c2)c(Cl)c1 [vismodegib]	1.48
NC(=O)c1cccc2cn(-c3ccc([C@@H]4CCCNC4)cc3)nc12 [niraparib]	1.35

same assay, conditions: 0.005 µM; days in culture: 172

Structure (SMILES)	CTG-3D luminescence at 96 h
C[C@@H]1COCCN1c1cc(C2([S@](C)(=N)=O)CC2)nc(-c2cc[nH]c3nccc2-3)n1 [ceralasertib]	2.2
CCN1CCN(Cc2ccc(Nc3ncc(F)c(-c4cc(F)c5nc(C)n(C(C)C)c5c4)n3)nc2)CC1 [abemaciclib]	1.87
NC1(C(=O)N[C@@H](CCO)c2ccc(Cl)cc2)CCN(c2nc[nH]c3nccc2-3)CC1 [capivasertib]	2.33
CC(C)n1nc(-c2ccc3oc(N)nc3c2)c2c(N)ncnc21 [sapanisertib]	1.9
O=C(c1ccc(F)c(F)c1Nc1ccc(I)cc1F)N1CC(O)([C@@H]2CCCCN2)C1 [cobimetinib]	2.13
C[C@H](NC(=O)CCC(F)(F)F)C(=O)N[C@@H]1C(=O)N(CCO)c2ncccc2-c2ccccc21 [crenigacestat]	1.37
Cc1cc(Nc2ncc(Cl)c(Nc3ccccc3S(=O)(=O)C(C)C)n2)c(OC(C)C)cc1C1CCNCC1 [ceritinib]	2.29
CS(=O)(=O)c1ccc(C(=O)Nc2ccc(Cl)c(-c3ccccn3)c2)c(Cl)c1 [vismodegib]	1.97
NC(=O)c1cccc2cn(-c3ccc([C@@H]4CCCNC4)cc3)nc12 [niraparib]	2.64

same assay, conditions: 0.005 µM; days in culture: 191

Structure (SMILES)	CTG-3D luminescence at 96 h
C[C@@H]1COCCN1c1cc(C2([S@](C)(=N)=O)CC2)nc(-c2cc[nH]c3nccc2-3)n1 [ceralasertib]	1.19
CCN1CCN(Cc2ccc(Nc3ncc(F)c(-c4cc(F)c5nc(C)n(C(C)C)c5c4)n3)nc2)CC1 [abemaciclib]	1.23
NC1(C(=O)N[C@@H](CCO)c2ccc(Cl)cc2)CCN(c2nc[nH]c3nccc2-3)CC1 [capivasertib]	1.53
CC(C)n1nc(-c2ccc3oc(N)nc3c2)c2c(N)ncnc21 [sapanisertib]	1.4
O=C(c1ccc(F)c(F)c1Nc1ccc(I)cc1F)N1CC(O)([C@@H]2CCCCN2)C1 [cobimetinib]	1.57
C[C@H](NC(=O)CCC(F)(F)F)C(=O)N[C@@H]1C(=O)N(CCO)c2ncccc2-c2ccccc21 [crenigacestat]	0.914
Cc1cc(Nc2ncc(Cl)c(Nc3ccccc3S(=O)(=O)C(C)C)n2)c(OC(C)C)cc1C1CCNCC1 [ceritinib]	1.3
CS(=O)(=O)c1ccc(C(=O)Nc2ccc(Cl)c(-c3ccccn3)c2)c(Cl)c1 [vismodegib]	1.77
NC(=O)c1cccc2cn(-c3ccc([C@@H]4CCCNC4)cc3)nc12 [niraparib]	1.72

same assay, conditions: 0.005 µM; days in culture: 218

Structure (SMILES)	CTG-3D luminescence at 96 h
C[C@@H]1COCCN1c1cc(C2([S@](C)(=N)=O)CC2)nc(-c2cc[nH]c3nccc2-3)n1 [ceralasertib]	1.72
CCN1CCN(Cc2ccc(Nc3ncc(F)c(-c4cc(F)c5nc(C)n(C(C)C)c5c4)n3)nc2)CC1 [abemaciclib]	1.7
NC1(C(=O)N[C@@H](CCO)c2ccc(Cl)cc2)CCN(c2nc[nH]c3nccc2-3)CC1 [capivasertib]	1.11
CC(C)n1nc(-c2ccc3oc(N)nc3c2)c2c(N)ncnc21 [sapanisertib]	1.59
O=C(c1ccc(F)c(F)c1Nc1ccc(I)cc1F)N1CC(O)([C@@H]2CCCCN2)C1 [cobimetinib]	2.02
C[C@H](NC(=O)CCC(F)(F)F)C(=O)N[C@@H]1C(=O)N(CCO)c2ncccc2-c2ccccc21 [crenigacestat]	0.952
Cc1cc(Nc2ncc(Cl)c(Nc3ccccc3S(=O)(=O)C(C)C)n2)c(OC(C)C)cc1C1CCNCC1 [ceritinib]	1.51
CS(=O)(=O)c1ccc(C(=O)Nc2ccc(Cl)c(-c3ccccn3)c2)c(Cl)c1 [vismodegib]	1.63
NC(=O)c1cccc2cn(-c3ccc([C@@H]4CCCNC4)cc3)nc12 [niraparib]	1.71

same assay, conditions: 0.1 µM; days in culture: 172

Structure (SMILES)	CTG-3D luminescence at 96 h
C[C@@H]1COCCN1c1cc(C2([S@](C)(=N)=O)CC2)nc(-c2cc[nH]c3nccc2-3)n1 [ceralasertib]	1.24
CCN1CCN(Cc2ccc(Nc3ncc(F)c(-c4cc(F)c5nc(C)n(C(C)C)c5c4)n3)nc2)CC1 [abemaciclib]	1.21
NC1(C(=O)N[C@@H](CCO)c2ccc(Cl)cc2)CCN(c2nc[nH]c3nccc2-3)CC1 [capivasertib]	1.49
CC(C)n1nc(-c2ccc3oc(N)nc3c2)c2c(N)ncnc21 [sapanisertib]	0.761
O=C(c1ccc(F)c(F)c1Nc1ccc(I)cc1F)N1CC(O)([C@@H]2CCCCN2)C1 [cobimetinib]	1.86
C[C@H](NC(=O)CCC(F)(F)F)C(=O)N[C@@H]1C(=O)N(CCO)c2ncccc2-c2ccccc21 [crenigacestat]	0.655
Cc1cc(Nc2ncc(Cl)c(Nc3ccccc3S(=O)(=O)C(C)C)n2)c(OC(C)C)cc1C1CCNCC1 [ceritinib]	1.44
CS(=O)(=O)c1ccc(C(=O)Nc2ccc(Cl)c(-c3ccccn3)c2)c(Cl)c1 [vismodegib]	1.34
NC(=O)c1cccc2cn(-c3ccc([C@@H]4CCCNC4)cc3)nc12 [niraparib]	1.3

same assay, conditions: 0.1 µM; days in culture: 191

Structure (SMILES)	CTG-3D luminescence at 96 h
C[C@@H]1COCCN1c1cc(C2([S@](C)(=N)=O)CC2)nc(-c2cc[nH]c3nccc2-3)n1 [ceralasertib]	1.08
CCN1CCN(Cc2ccc(Nc3ncc(F)c(-c4cc(F)c5nc(C)n(C(C)C)c5c4)n3)nc2)CC1 [abemaciclib]	1.15
NC1(C(=O)N[C@@H](CCO)c2ccc(Cl)cc2)CCN(c2nc[nH]c3nccc2-3)CC1 [capivasertib]	1.06
CC(C)n1nc(-c2ccc3oc(N)nc3c2)c2c(N)ncnc21 [sapanisertib]	0.411
O=C(c1ccc(F)c(F)c1Nc1ccc(I)cc1F)N1CC(O)([C@@H]2CCCCN2)C1 [cobimetinib]	1.17
C[C@H](NC(=O)CCC(F)(F)F)C(=O)N[C@@H]1C(=O)N(CCO)c2ncccc2-c2ccccc21 [crenigacestat]	0.48
Cc1cc(Nc2ncc(Cl)c(Nc3ccccc3S(=O)(=O)C(C)C)n2)c(OC(C)C)cc1C1CCNCC1 [ceritinib]	0.962
CS(=O)(=O)c1ccc(C(=O)Nc2ccc(Cl)c(-c3ccccn3)c2)c(Cl)c1 [vismodegib]	1.1
NC(=O)c1cccc2cn(-c3ccc([C@@H]4CCCNC4)cc3)nc12 [niraparib]	1.06

same assay, conditions: 0.1 µM; days in culture: 218

Structure (SMILES)	CTG-3D luminescence at 96 h
C[C@@H]1COCCN1c1cc(C2([S@](C)(=N)=O)CC2)nc(-c2cc[nH]c3nccc2-3)n1 [ceralasertib]	1.55
CCN1CCN(Cc2ccc(Nc3ncc(F)c(-c4cc(F)c5nc(C)n(C(C)C)c5c4)n3)nc2)CC1 [abemaciclib]	1.63
NC1(C(=O)N[C@@H](CCO)c2ccc(Cl)cc2)CCN(c2nc[nH]c3nccc2-3)CC1 [capivasertib]	1.59
CC(C)n1nc(-c2ccc3oc(N)nc3c2)c2c(N)ncnc21 [sapanisertib]	0.561
O=C(c1ccc(F)c(F)c1Nc1ccc(I)cc1F)N1CC(O)([C@@H]2CCCCN2)C1 [cobimetinib]	1.47
C[C@H](NC(=O)CCC(F)(F)F)C(=O)N[C@@H]1C(=O)N(CCO)c2ncccc2-c2ccccc21 [crenigacestat]	0.72
Cc1cc(Nc2ncc(Cl)c(Nc3ccccc3S(=O)(=O)C(C)C)n2)c(OC(C)C)cc1C1CCNCC1 [ceritinib]	1.54
CS(=O)(=O)c1ccc(C(=O)Nc2ccc(Cl)c(-c3ccccn3)c2)c(Cl)c1 [vismodegib]	1.61
NC(=O)c1cccc2cn(-c3ccc([C@@H]4CCCNC4)cc3)nc12 [niraparib]	1.25

same assay, conditions: 1 µM; days in culture: 172

Structure (SMILES)	CTG-3D luminescence at 96 h
C[C@@H]1COCCN1c1cc(C2([S@](C)(=N)=O)CC2)nc(-c2cc[nH]c3nccc2-3)n1 [ceralasertib]	2.01
CCN1CCN(Cc2ccc(Nc3ncc(F)c(-c4cc(F)c5nc(C)n(C(C)C)c5c4)n3)nc2)CC1 [abemaciclib]	1.52
NC1(C(=O)N[C@@H](CCO)c2ccc(Cl)cc2)CCN(c2nc[nH]c3nccc2-3)CC1 [capivasertib]	1.2
CC(C)n1nc(-c2ccc3oc(N)nc3c2)c2c(N)ncnc21 [sapanisertib]	0.765
O=C(c1ccc(F)c(F)c1Nc1ccc(I)cc1F)N1CC(O)([C@@H]2CCCCN2)C1 [cobimetinib]	1.47
C[C@H](NC(=O)CCC(F)(F)F)C(=O)N[C@@H]1C(=O)N(CCO)c2ncccc2-c2ccccc21 [crenigacestat]	0.872
Cc1cc(Nc2ncc(Cl)c(Nc3ccccc3S(=O)(=O)C(C)C)n2)c(OC(C)C)cc1C1CCNCC1 [ceritinib]	1.69
CS(=O)(=O)c1ccc(C(=O)Nc2ccc(Cl)c(-c3ccccn3)c2)c(Cl)c1 [vismodegib]	1.97
NC(=O)c1cccc2cn(-c3ccc([C@@H]4CCCNC4)cc3)nc12 [niraparib]	0.847

same assay, conditions: 1 µM; days in culture: 191

Structure (SMILES)	CTG-3D luminescence at 96 h
C[C@@H]1COCCN1c1cc(C2([S@](C)(=N)=O)CC2)nc(-c2cc[nH]c3nccc2-3)n1 [ceralasertib]	1.25
CCN1CCN(Cc2ccc(Nc3ncc(F)c(-c4cc(F)c5nc(C)n(C(C)C)c5c4)n3)nc2)CC1 [abemaciclib]	1.45
NC1(C(=O)N[C@@H](CCO)c2ccc(Cl)cc2)CCN(c2nc[nH]c3nccc2-3)CC1 [capivasertib]	1.24
CC(C)n1nc(-c2ccc3oc(N)nc3c2)c2c(N)ncnc21 [sapanisertib]	0.69
O=C(c1ccc(F)c(F)c1Nc1ccc(I)cc1F)N1CC(O)([C@@H]2CCCCN2)C1 [cobimetinib]	1.01
C[C@H](NC(=O)CCC(F)(F)F)C(=O)N[C@@H]1C(=O)N(CCO)c2ncccc2-c2ccccc21 [crenigacestat]	0.414
Cc1cc(Nc2ncc(Cl)c(Nc3ccccc3S(=O)(=O)C(C)C)n2)c(OC(C)C)cc1C1CCNCC1 [ceritinib]	1.19
CS(=O)(=O)c1ccc(C(=O)Nc2ccc(Cl)c(-c3ccccn3)c2)c(Cl)c1 [vismodegib]	1.7
NC(=O)c1cccc2cn(-c3ccc([C@@H]4CCCNC4)cc3)nc12 [niraparib]	1.12

Reference: the supplement of paper PMC8882468
